Five sequences from patent US20040001845A1, “Cytotoxic T-cell epitopes of HIV-1 virus” (priority 2002, published 2004) can be followed below.

This assay relates to PBMC (HIV-1-specific CD8+ T cells) of subject AC-06. Description: IFN-γ Elispot assay of HIV-1-specific CD8+ T cell responses in subject AC-06. It counts as cell-based, human.
Where [1] appears, read: subject AC-06, 0 months after infection.
Where [2] appears, read: subject AC-06, 2 months after infection.
Where [3] appears, read: subject AC-06, 6 months after infection.
[4] abbreviates: subject AC-06, 12 months after infection.
The mark [5] stands for this setting: subject AC-06, 18 months after infection.
Setting [6] is: subject AC-06, 20 months after infection.
[7] abbreviates: subject AC-06, 24 months after infection.
Where [8] appears, read: subject AC-06, 29.5 months after infection.
Where [9] appears, read: subject AC-06, 34 months after infection.

For the sequence HPVHAGPIA [B7-HA9], the “magnitude of HIV-1-specific CD8+ T cell responses at the single epitope level” value (from here on “magnitude”) reads like this: under setting [1], 0 SFC/Million PBMC; under setting [2], 0 SFC/Million PBMC; under setting [3], 0 SFC/Million PBMC; under setting [4], 0 SFC/Million PBMC; under setting [5], 0 SFC/Million PBMC; under setting [6], 0 SFC/Million PBMC. The “magnitude” value came out at 0 SFC/Million PBMC under setting [7], 700 SFC/Million PBMC under setting [8] and 360 SFC/Million PBMC under setting [9].

For the sequence KLVDFRELNK [A3-KK10], the “magnitude” value is, setting by setting: under setting [1], 0 SFC/Million PBMC; under setting [2], 0 SFC/Million PBMC; under setting [3], 0 SFC/Million PBMC; under setting [4], 0 SFC/Million PBMC; under setting [5], 0 SFC/Million PBMC; under setting [6], 0 SFC/Million PBMC. For the same sequence, the “magnitude” value under setting [7] was found to be 70 SFC/Million PBMC, the “magnitude” value under setting [8] was 1200 SFC/Million PBMC and the “magnitude” value under setting [9] came out at 1800 SFC/Million PBMC.

As for KTKPPLPSVKK [A3-KK11], the “magnitude” value is, setting by setting: under setting [1], 0 SFC/Million PBMC; under setting [2], 0 SFC/Million PBMC; under setting [3], 0 SFC/Million PBMC; under setting [4], 0 SFC/Million PBMC; under setting [5], 0 SFC/Million PBMC; under setting [6], 150 SFC/Million PBMC. In addition, the “magnitude” value is on record as 340 SFC/Million PBMC under setting [7], 600 SFC/Million PBMC under setting [8] and 1200 SFC/Million PBMC under setting [9].

For the sequence RIRTWKSLVK [A3-RK10], the “magnitude” value stood at 0 SFC/Million PBMC under setting [1]; 0 SFC/Million PBMC under setting [2]; 0 SFC/Million PBMC under setting [3]; 0 SFC/Million PBMC under setting [4]; 0 SFC/Million PBMC under setting [5]; 180 SFC/Million PBMC under setting [6]. Further, the “magnitude” value was 270 SFC/Million PBMC under setting [7], 1100 SFC/Million PBMC under setting [8] and 1600 SFC/Million PBMC under setting [9].

For RLRDLLLIVTR [A3-RR11], the “magnitude” value reads like this: under setting [1], 0 SFC/Million PBMC; under setting [2], 0 SFC/Million PBMC; under setting [3], 0 SFC/Million PBMC; under setting [4], 0 SFC/Million PBMC; under setting [5], 0 SFC/Million PBMC; under setting [6], 0 SFC/Million PBMC. Moreover, the “magnitude” value runs as follows: under setting [7], 260 SFC/Million PBMC; under setting [8], 230 SFC/Million PBMC; under setting [9], 320 SFC/Million PBMC.
